Patent US10221174B2, “N-(phenylsulfonyl)benzamides and related compounds as BCL-2 inhibitors” (THE REGENTS OF THE UNIVERSITY OF MICHIGAN, priority 2016, dated 2019)
Like-named read-outs stand apart in the source and are kept apart here.

Columns and labels:
RS4;11 cells = assay: RS4;11 cell viability, CCK-8 assay; assay type: cell-based; conditions: Homo sapiens, RS4-11, 96 h, CCK-8, 4 days, read-out: RS4, 11 IC50 (Bcl-2 dependent)
Procedure: RS4;11 cells were obtained from American Type Culture Collection (ATCC). They were used within three months of thawing fresh vials. Cells were maintained in the recommended culture medium with 10% FBS at 37° C. and an atmosphere of 5% CO2.
The effect of representative Compounds of the Disclosure on cell viability was determined using Cell Counting Kit-8 (CCK-8) assay (Dojindo, Rockville, Md.) according to the manufacturer's instructions. 200 μL of a RS4;11 cell suspension (10000 cells/well) in culture medium were seeded into 96-well plates and cultured overnight. Each tested compound was serially diluted in culture medium, and 20 μL of the compound dilution was added to the corresponding well of the cell plate. After the addition of the tested compound, the cells were incubated at 37° C. in an atmosphere of 5% CO2 for 4 days. At the end of 4 days, 10 μL of CCK-8 solution was added to each well of the plate and incubated for 1-4 hours. The plates were read at 450 nm on the microplate spectrophotometer (Epoch2, BioTek). The readings were normalized to the vehicle cells, and the IC50 was calculated by nonlinear regression analysis using GraphPad Prism 5 software.

Bcl-xL = Bcl-xL (Homo sapiens (Human), UniProt Q07817); assay: Fluorescence polarization competitive binding assay, Bcl-xL; conditions: FP competition, 10 nM Bcl-xL, 2 nM Flu-BAK probe; read-out: Inhibitory activity IC50 Bcl-xL
Sequence of Bcl-xL (Q07817 whole entry): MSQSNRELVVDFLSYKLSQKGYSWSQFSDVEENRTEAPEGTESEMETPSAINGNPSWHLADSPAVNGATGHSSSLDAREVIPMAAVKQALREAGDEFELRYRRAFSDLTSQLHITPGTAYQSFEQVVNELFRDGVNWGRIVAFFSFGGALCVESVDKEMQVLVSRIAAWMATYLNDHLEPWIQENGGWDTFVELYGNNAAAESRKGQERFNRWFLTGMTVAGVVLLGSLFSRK
Procedure: Fluorescence polarization values were measured using the Infinite M-1000 plate reader (Tecan U.S., Research Triangle Park, N.C.) in Microfluor 1 96-well, black, round-bottom plates (Thermo Scientific). […] Plates were mixed and incubated at room temperature for 1 hour with gentle shaking to assure equilibrium. […] Equilibrium dissociation constants (Kd) were then calculated by fitting the sigmoidal dose-dependent FP increases as a function of protein concentrations using Graphpad Prism 5.0 software (Graphpad Software, San Diego, Calif.).
Mixtures of 5 μl of the tested inhibitors in DMSO and 120 μl of pre-incubated protein/probe complexes in the assay buffer were added into assay plates and incubated at room temperature for 2 hours with gentle shaking. […] FP values were measured as described above. IC50 values were determined by nonlinear regression fitting of the competition curves.

MV4;11 cell line = assay: MV4;11 inhibition; assay type: cell-based

| IC50 (RS4;11 cells) | IC50 (MV4;11 cell line; Homo sapiens, MV4-11) | IC50 (MV4;11 cell line) | Compound | IC50 (Bcl-xL) |
| --- | --- | --- | --- | --- |
| 0.012 µM | 0.0482 µM | – | O=C(NS(=O)(=O)c1cc(F)c(NCC2CCOCC2)c([N+](=O)[O-])c1)c1ccc(N2CCN(CC3=C(c4ccc(Cl)cc4)CC4(CCC4)CC3)CC2)cc1Oc1cnc2[nH]ccc2c1 [compound 29, 2-((1H-pyrrolo[2,3-b]pyridin-5-yl)oxy)-4-(4-((6-(4-chlorophenyl)spiro[3.5]non-6-en-7-yl)methyl)piperazin-1-yl)-N-((3-fluoro-5-nitro-4-(((tetrahydro-2H-pyran-4-yl)methyl)amino)phenyl)sulfonyl)benzamide] | – |
| 0.019 µM | 0.0225 µM | – | O=C(NS(=O)(=O)c1ccc(NCC2CCOCC2)c([N+](=O)[O-])c1)c1ncc(N2CCN(CC3=C(c4ccc(Cl)cc4)CC4(CCC4)CC3)CC2)cc1Oc1cnc2[nH]ccc2c1 [compound 30, 3-((1H-pyrrolo[2,3-b]pyridin-5-yl)oxy)-5-(4-((6-(4-chlorophenyl)spiro[3.5]non-6-en-7-yl)methyl)piperazin-1-yl)-N-((3-nitro-4-(((tetrahydro-2H-pyran-4-yl)methyl)amino)phenyl)sulfonyl)picolinamide] | – |
| 0.013 µM | 0.0444 µM | – | O=C(NS(=O)(=O)c1ccc(NC[C@H]2COCCO2)c([N+](=O)[O-])c1)c1ccc(N2CCN(CC3=C(c4ccc(Cl)cc4)CC4(CCC4)CC3)CC2)c(F)c1Oc1cnc2[nH]ccc2c1 [compound 36, (S)-N-((4-(((1,4-dioxan-2-yl)methyl)amino)-3-nitrophenyl)sulfonyl)-2-((1H-pyrrolo[2,3-b]pyridin-5-yl)oxy)-4-(4-((6-(4-chlorophenyl)spiro[3.5]non-6-en-7-yl)methyl)piperazin-1-yl)-3-fluorobenzamide] | – |
| 0.031 µM | – | 0.0337 µM | O=C(NS(=O)(=O)c1ccc(NC[C@H]2COCCO2)c([N+](=O)[O-])c1)c1cc(F)c(N2CCN(CC3=C(c4ccc(Cl)cc4)CC4(CCC4)CC3)CC2)cc1Oc1cnc2[nH]ccc2c1 [compound 39, (S)-N-((4-(((1,4-dioxan-2-yl)methyl)amino)-3-nitrophenyl)sulfonyl)-2-((1H-pyrrolo[2,3-b]pyridin-5-yl)oxy)-4-(4-((6-(4-chlorophenyl)spiro[3.5]non-6-en-7-yl)methyl)piperazin-1-yl)-5-fluorobenzamide] | – |
| 0.052 µM | 0.0181 µM | – | O=C(NS(=O)(=O)c1ccc(NCC2CCOCC2)c([N+](=O)[O-])c1)c1c(F)cc(N2CCN(CC3=C(c4ccc(Cl)cc4)CC4(CCC4)CC3)CC2)cc1Oc1cnc2[nH]ccc2c1 [compound 41, 2-((1H-pyrrolo[2,3-b]pyridin-5-yl)oxy)-4-(4-((6-(4-chlorophenyl)spiro[3.5]non-6-en-7-yl)methyl)piperazin-1-yl)-6-fluoro-N-((3-nitro-4-(((tetrahydro-2H-pyran-4-yl)methyl)amino)phenyl)sulfonyl)benzamide] | – |
| 0.111 µM | 0.0881 µM | – | O=C(NS(=O)(=O)c1ccc(NCC2CCOCC2)c([N+](=O)[O-])c1)c1ccc(N2CCN(CC3=C(c4ccc(Cl)cc4)CC4(CCC4)CC3)CC2)c(F)c1Oc1cnc2[nH]ccc2c1 [compound 42, 2-((1H-pyrrolo[2,3-b]pyridin-5-yl)oxy)-4-(4-((6-(4-chlorophenyl)spiro[3.5]non-6-en-7-yl)methyl)piperazin-1-yl)-3-fluoro-N-((3-nitro-4-(((tetrahydro-2H-pyran-4-yl)methyl)amino)phenyl)sulfonyl)benzamide] | – |
| 0.08 µM | 0.126 µM | – | COCCOCCNc1ccc(S(=O)(=O)NC(=O)c2ccc(N3CCN(CC4=C(c5ccc(Cl)cc5)CC5(CCC5)CC4)CC3)c(F)c2Oc2cnc3[nH]ccc3c2)cc1[N+](=O)[O-] [compound 43, 2-((1H-pyrrolo[2,3-b]pyridin-5-yl)oxy)-4-(4-((6-(4-chlorophenyl)spiro[3.5]non-6-en-7-yl)methyl)piperazin-1-yl)-3-fluoro-N-((4-((2-(2-methoxyethoxy)ethyl)amino)-3-nitrophenyl)sulfonyl)benzamide] | – |

Second part, the compound before the results:

| Compound | IC50 (RS4;11 cells) | IC50 (MV4;11 cell line; Homo sapiens, MV4-11) | IC50 (MV4;11 cell line) | IC50 (Bcl-xL) |
| --- | --- | --- | --- | --- |
| O=C(NS(=O)(=O)c1ccc(NCC2CCOCC2)c([N+](=O)[O-])c1)c1ccc(C2=CCN(CC3=C(c4ccc(Cl)cc4)CC4(CCC4)CC3)CC2)cc1Oc1cnc2[nH]ccc2c1 [compound 7, 2-((1H-pyrrolo[2,3-b]pyridin-5-yl)oxy)-4-(1-((6-(4-chlorophenyl)spiro[3.5]non-6-en-7-yl)methyl)-1,2,3,6-tetrahydropyridin-4-yl)-N-((3-nitro-4-(((tetrahydro-2H-pyran-4-yl)methyl)amino)phenyl)sulfonyl)benzamide] | 0.035 µM | – | – | 0.0157 µM |
| O=C(NS(=O)(=O)c1ccc(NC[C@H]2COCCO2)c([N+](=O)[O-])c1)c1ncc(N2CCN(CC3=C(c4ccc(Cl)cc4)CC4(CCC4)CC3)CC2)cc1Oc1cnc2[nH]ccc2c1 [compound 27, (S)-N-((4-(((1,4-dioxan-2-yl)methyl)amino)-3-nitrophenyl)sulfonyl)-3-((1H-pyrrolo[2,3-b]pyridin-5-yl)oxy)-5-(4-((6-(4-chlorophenyl)spiro[3.5]non-6-en-7-yl)methyl)piperazin-1-yl)picolinamide] | 0.0052 µM | 0.0169 µM | – | – |
| O=C(NS(=O)(=O)c1ccc(NC[C@H]2COCCO2)c([N+](=O)[O-])c1)c1ccc(N2CCN(CC3=C(c4ccc(Cl)cc4)CC4(CCC4)CC3)CC2)nc1Oc1cnc2[nH]ccc2c1 [compound 28, (S)-N-((4-(((1,4-dioxan-2-yl)methyl)amino)-3-nitrophenyl)sulfonyl)-2-((1H-pyrrolo[2,3-b]pyridin-5-yl)oxy)-6-(4-((6-(4-chlorophenyl)spiro[3.5]non-6-en-7-yl)methyl)piperazin-1-yl)nicotinamide] | 0.968 µM | 1.29 µM | – | – |
| COCCOCCNc1ccc(S(=O)(=O)NC(=O)c2ncc(N3CCN(CC4=C(c5ccc(Cl)cc5)CC5(CCC5)CC4)CC3)cc2Oc2cnc3[nH]ccc3c2)cc1[N+](=O)[O-] [compound 31, 3-((1H-pyrrolo[2,3-b]pyridin-5-yl)oxy)-5-(4-((6-(4-chlorophenyl)spiro[3.5]non-6-en-7-yl)methyl)piperazin-1-yl)-N-((4-((2-(2-methoxyethoxy)ethyl)amino)-3-nitrophenyl)sulfonyl)picolinamide] | 0.034 µM | 0.116 µM | – | – |
| COCCn1cc(S(=O)(=O)NC(=O)c2ccc(N3CCN(CC4=C(c5ccc(Cl)cc5)CC5(CCC5)CC4)CC3)cc2Oc2cnc3[nH]ccc3c2)cc1[N+](=O)[O-] [compound 35, 2-((1H-pyrrolo[2,3-b]pyridin-5-yl)oxy)-4-(4-((6-(4-chlorophenyl)spiro[3.5]non-6-en-7-yl)methyl)piperazin-1-yl)-N-((1-(2-methoxyethyl)-5-nitro-1H-pyrrol-3-yl)sulfonyl)benzamide] | 0.611 µM | 3.6 µM | – | – |
| COCCOCCNc1ccc(S(=O)(=O)NC(=O)c2cc(F)c(N3CCN(CC4=C(c5ccc(Cl)cc5)CC5(CCC5)CC4)CC3)cc2Oc2cnc3[nH]ccc3c2)cc1[N+](=O)[O-] [compound 37, 2-((1H-pyrrolo[2,3-b]pyridin-5-yl)oxy)-4-(4-((6-(4-chlorophenyl)spiro[3.5]non-6-en-7-yl)methyl)piperazin-1-yl)-5-fluoro-N-((4-((2-(2-methoxyethoxy)ethyl)amino)-3-nitrophenyl)sulfonyl)benzamide] | 0.068 µM | 0.154 µM | – | – |
| O=C(NS(=O)(=O)C1=CC2C(=O)N(CC3CCOCC3)CC2C([N+](=O)[O-])=C1)c1ccc(N2CCN(CC3=C(c4ccc(Cl)cc4)CC4(CCC4)CC3)CC2)cc1Oc1cnc2[nH]ccc2c1 (centres unmarked) [compound 38, 2-((1H-pyrrolo[2,3-b]pyridin-5-yl)oxy)-4-(4-((6-(4-chlorophenyl)spiro[3.5]non-6-en-7-yl)methyl)piperazin-1-yl)-N-((7-nitro-3-oxo-2-((tetrahydro-2H-pyran-4-yl)methyl)-2,3,3a,7a-tetrahydro-1H-isoindol-5-yl)sulfonyl)benzamide] | 0.066 µM | 0.103 µM | – | – |
| O=C(NS(=O)(=O)c1cc([N+](=O)[O-])c2c(cnn2CC2CCOCC2)c1)c1ccc(N2CCN(CC3=C(c4ccc(Cl)cc4)CC4(CCC4)CC3)CC2)cc1Oc1cnc2[nH]ccc2c1 [compound 60, 2-((1H-pyrrolo[2,3-b]pyridin-5-yl)oxy)-4-(4-((6-(4-chlorophenyl)spiro[3.5]non-6-en-7-yl)methyl)piperazin-1-yl)-N-((7-nitro-1-((tetrahydro-2H-pyran-4-yl)methyl)-1H-indazol-5-yl)sulfonyl)benzamide] | 0.252 µM | – | – | 0.0675 µM |
| O=C(NS(=O)(=O)c1cc([N+](=O)[O-])c2[nH]c(-c3ccncc3)nc2c1)c1ccc(N2CCN(CC3=C(c4ccc(Cl)cc4)CC4(CCC4)CC3)CC2)cc1Oc1cnc2[nH]ccc2c1 [compound 66, 2-((1H-pyrrolo[2,3-b]pyridin-5-yl)oxy)-4-(4-((6-(4-chlorophenyl)spiro[3.5]non-6-en-7 yl)methyl)piperazin-1-yl)-N-((7-nitro-2-(pyridin-4-yl)-1H-benzo[d]imidazol-5-yl)sulfonyl)benzamide] | 0.243 µM | > 1000 µM | – | – |
